Test results as given in the supplement of paper PMC10307832.

What was measured:
Experiment in all cases: relative viability (nuclei count vs DMSO), 5 days (fraction); higher = more cells survive
[1] = compound: O=c1[nH]cc(F)c(=O)[nH]1 [5-Fluorouracil] + CS(=O)(=O)CCNCc1ccc(-c2ccc3ncnc(Nc4ccc(OCc5cccc(F)c5)c(Cl)c4)c3c2)o1 [Lapatinib] (partner 2 µM)
Method in brief: (§1)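 Lung cancer cell lines in 1536-well plates were dosed by pin tool the day after seeding, either with one drug alone or with a fixed anchor-drug dose plus five library-drug doses (not always all listed) in √10 steps. After 5 days, cells were fixed and their nuclei stained in one step (final 0.05% Triton X-100, 1% formaldehyde, 1 ug/ml Hoechst), then counted on 4× images. Relative viability is the nuclei count in treated wells divided by that in vehicle wells. Values are medians of duplicate plates.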

[2] = compound: CN[C@@H]1C[C@H]2O[C@@](C)([C@@H]1OC)n1c3ccccc3c3c4c(c5c6ccccc6n2c5c31)C(=O)NC4 [Staurosporine] + Nc1nc2[nH]cc(CCc3ccc(C(=O)N[C@@H](CCC(=O)O)C(=O)O)cc3)c2c(=O)[nH]1 [Pemetrexed] (partner 0.2 µM)
Method in brief: as §1

[3] = compound: O=c1[nH]cc(F)c(=O)[nH]1 [5-Fluorouracil] + Cc1cc(Nc2cc(N3CCN(C)CC3)nc(Sc3ccc(NC(=O)C4CC4)cc3)n2)n[nH]1 [Tozasertib] (partner 0.1 µM)
Method in brief: as §1

[4] = compound: O=c1[nH]cc(F)c(=O)[nH]1 [5-Fluorouracil] + CC(C)C[C@H](NC(=O)[C@H](Cc1ccccc1)NC(=O)c1cnccn1)B(O)O [Bortezomib] (partner 0.002 µM)
Method in brief: as §1

Cell Line	relative viability ([1]; first compound 0.02 µM)	relative viability ([1]; first compound 0.2 µM)	relative viability ([1]; first compound 0.6325 µM)	relative viability ([1]; first compound 2 µM)	relative viability ([2]; first compound 0.005 µM)	relative viability ([2]; first compound 0.05 µM)	relative viability ([2]; first compound 0.1581 µM)	relative viability ([2]; first compound 0.5 µM)	relative viability ([3]; first compound 0.02 µM)	relative viability ([3]; first compound 0.2 µM)	relative viability ([3]; first compound 0.6325 µM)	relative viability ([3]; first compound 2 µM)	relative viability ([4]; first compound 0.02 µM)	relative viability ([4]; first compound 0.2 µM)	relative viability ([4]; first compound 0.6325 µM)	relative viability ([4]; first compound 2 µM)	relative viability ([2]; first compound 0.01581 µM)
NCI-H2170	0.282	0.317	0.273	0.27	0.247	0.243	0.101	0.173	0.796	0.671	0.436	0.32	–	–	–	–	–
HCC-366	0.996	0.945	0.523	0.0471	0.133	0.0702	0.0274	0.0293	0.193	0.0738	0.0902	0.0478	1.08	0.946	0.523	0.0524	–
NCI-H2405	1.06	1.22	1.06	0.63	0.417	0.14	0.0988	0.1	0.686	0.81	0.733	0.703	0.943	1.02	0.96	0.681	0.174
COR-L 105	0.362	0.409	0.367	0.381	0.655	0.52	0.428	0.293	0.303	0.328	0.323	0.26	0.662	0.704	0.597	0.401	0.554
201T	1.05	0.964	0.479	0.376	0.339	0.261	0.253	0.214	0.916	0.477	0.369	0.313	1.11	1.04	0.417	0.346	–
NCI-H2228	1.13	1.06	0.687	0.505	0.288	0.192	–	0.116	0.293	0.25	0.24	0.187	1.03	0.911	0.811	0.442	0.185
LC-2-ad	1.05	0.975	0.255	0.264	0.277	0.209	0.102	0.0993	0.443	0.382	0.365	0.293	1.01	0.914	0.598	0.276	0.21
NCI-H2087	1.03	1.22	0.748	0.548	0.548	0.429	0.171	0.117	0.282	0.236	0.253	0.156	0.884	0.757	0.599	0.497	0.531
NCI-H358	0.509	0.508	0.435	0.352	0.165	0.102	0.102	0.0764	0.132	0.104	0.0975	0.103	–	–	–	–	0.158
H3255	0.269	0.264	0.255	0.257	0.481	0.305	0.213	0.135	0.63	0.663	0.652	0.497	0.804	0.867	0.684	0.544	0.392
NCI-H23	1.11	1.09	0.545	0.268	0.459	0.216	0.163	0.113	0.544	0.327	0.318	0.189	1.07	1.34	0.598	0.309	0.143
CAL-12T	0.573	0.897	0.649	0.559	0.345	0.229	0.191	0.124	0.337	0.385	0.316	0.221	1.13	1.05	0.911	0.751	0.248
A-427	1.02	1.07	1.07	0.792	0.633	0.335	0.209	0.175	0.181	–	0.189	0.159	0.888	1.07	0.986	0.532	0.58
HARA	0.922	0.892	0.657	0.568	0.195	0.134	0.138	0.168	0.165	0.122	0.129	0.103	1.17	1.15	1.08	1.03	0.167
NCI-H1793	0.581	0.853	0.471	0.347	0.865	0.371	0.154	0.125	0.318	0.349	0.398	0.251	–	–	–	–	–
NCI-H1623	–	–	–	–	–	–	–	–	0.38	0.314	0.264	0.248	–	–	–	–	–
NCI-H2023	0.719	0.234	0.0995	0.113	0.183	0.0933	0.0756	0.0692	0.441	0.146	0.112	0.0913	0.803	0.214	0.11	0.0857	0.154
ABC-1	1.33	1.23	1.24	1.13	–	–	–	–	0.163	0.184	0.171	0.195	0.251	0.274	0.361	0.375	–
IA-LM	0.812	0.461	0.293	0.352	–	–	–	–	–	–	–	–	0.766	0.327	0.193	0.141	–
NCI-H441	–	–	–	–	0.246	0.177	0.157	0.147	0.701	0.468	0.372	0.343	0.513	0.408	0.482	0.303	0.203
NCI-H1915	0.908	0.999	0.97	0.724	0.486	0.219	0.15	0.0886	0.376	0.418	0.433	0.331	0.717	1	0.915	0.765	0.231
LXF-289	0.897	0.782	0.333	0.285	0.812	0.307	0.0978	0.159	0.189	0.164	0.134	0.138	0.99	0.712	0.312	0.282	0.182
